Data on 21 compounds can be found in US9206200B2, “N-linked lactam M1 receptor positive allosteric mogulators” (Merck Sharp & Dohme Corp., priority 2011, dated 2015).

Molecules are shown by their SMILES.

The first assay deals with T1, acetylcholine muscarinic M1 receptor (Homo sapiens, UniProt P11229).
T1 construct: expressed in transfected cells; host or cells: CHOnfat cells (CHO cells with an NFAT reporter) expressing hM1, kept under Geneticin selection
T1 sequence (P11229 1-460): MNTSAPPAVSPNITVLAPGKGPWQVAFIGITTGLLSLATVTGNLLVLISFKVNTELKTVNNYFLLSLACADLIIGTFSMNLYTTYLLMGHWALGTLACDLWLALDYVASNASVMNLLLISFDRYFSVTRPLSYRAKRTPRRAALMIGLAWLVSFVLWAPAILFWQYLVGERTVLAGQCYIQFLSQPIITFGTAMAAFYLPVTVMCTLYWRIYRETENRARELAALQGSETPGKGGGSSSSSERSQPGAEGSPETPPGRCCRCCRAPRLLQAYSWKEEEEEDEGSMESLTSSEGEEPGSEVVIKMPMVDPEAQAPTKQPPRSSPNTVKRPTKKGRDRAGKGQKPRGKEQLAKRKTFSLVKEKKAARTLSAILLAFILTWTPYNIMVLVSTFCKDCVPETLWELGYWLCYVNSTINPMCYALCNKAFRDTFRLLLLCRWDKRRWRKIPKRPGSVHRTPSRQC
The assay is described as follows: muscarinic FLIPR assay: intracellular calcium in CHOnfat/hM1 cells, potentiation of EC20 acetylcholine. The class given is cell-based. The following applies: Table 1; CHOnfat/hM1 cells, FLIPR, EC20 acetylcholine (3 nM final); read-out: M1 Pot. As for the experimental part:
The assay studies the effect of one or several concentrations of test compounds on basal or acetylcholine-stimulated Ca^2+ levels using FLIPR.
Compounds are prepared and subjected to a preincubation period of […]. Thereafter, a single EC20 concentration of acetylcholine is added to each well (3 nM final). The intracellular Ca^2+ level of each sample is measured and compared to an acetylcholine control to determine any modulatory activity.
Cells: CHOnfat/hM1, hM2, hM3 or hM4 cells are plated 24 hr before the assay at a density of 18,000 cells/well (100 μL) in a 384 well plate. CHOnfat/hM1 and CHOnfat/hM3 Growth Medium: 90% DMEM (Hi Glucose); 10% HI FBS; 2 mM L-glutamine; 0.1 mM NEAA; Pen-Strep; and 1 mg/ml Geneticin, are added. For M2Gqi5CHOnfat and M4Gqi5CHOnfat cells, an additional 600 ug/ml hygromycin is added.
Equipment: 384 well plate, 120 μl, addition plate; 96-well Whatman 2 ml Uniplate Incubator, 37° C., 5% CO2; Skatron EMBLA-384 Plate Washer; Multimek Pipetting System; Genesis Freedom 200 System; Mosquito System; Temo Nanolitre Pipetting System; and FLIPR^384 Fluorometric Imaging Plate Reader System are used.
Buffers. Assay Buffer: Hanks Balanced Salt Solution, with 20 mM Hepes, 2.5 mM Probenecid (Sigma P-8761) first dissolved in 1 N NaOH, 1% Bovine Serum Albumin (Sigma A-9647). Dye Loading Buffer: Assay Buffer plus 1% Fetal Bovine Serum and Fluo-4AM/Pluronic Acid Mixture. 2 mM Fluo-4AM ester stock in DMSO (Molecular Probes F-14202) Concentration of 2 μM in buffer for a final concentration of 1 μM in Assay. 20% Pluronic Acid Solution stock, with concentration of 0.04% in Buffer, 0.02% in Assay.
65 μL of 2 mM Fluo-4AM are mixed with 130 μL of 20% Pluronic Acid. The resulting solution and 650 μL FBS is added to the assay buffer for a total volume of 65 mL. Positive Controls: 4-Br-A23187: 10 mM in DMSO; final concentration 10 μM. Acetylcholine: 10 mM in water, working stock at both 20 μM and 30 μM in assay buffer, final concentration of 10 μM. This is used to check the maximum stimulation of the CHOK1/hM1 cells. 20 μM (2×) acetylcholine is added in the preincubation part of the assay, and the 30 μM (3×) stock is added in the second part. (EC20)Acetylcholine: 10 mM in water, working stock of 9 nM (3×), and final concentration in assay is 3 nM. This is used after the preincubation with test compounds. Addition of the EC20 Acetylcholine to each well with a test compound will ascertain any modulator activity. 24 wells contain 3 nM Acetylcholine alone as a control.
Determining Activity of Putative Compounds:
Screening Plate Compounds are titrated in 96-well plates (columns 2-11), 100% DMSO, started at a concentration of 15 mM (150× stock concentration), and 3-fold serial dilutions using Genesis Freedom200 System. Four 96-well plates are combined into a 384-well plate using Mosquito Nanolitre Pipetting System by transferring 1 μl of serial diluted compounds to each well, and 1 mM acetylcholine (100× stock concentration) were added as a control. Using Temo, 49 μl assay buffer is added to each well of the 384-well plate right before assay.
In a 96-well Whatman 2 ml Uniplate, 9 nM Acetylcholine (3×) is pipetted into wells corresponding to the screening compounds, and into control wells. The 30 μM acetylcholine control (3×) is added into control wells, and the 3× agonist plate is transferred into a 384 well plate.
Cells are washed three times with 100 μL of buffer, leaving […] of buffer in each well. Using Multimek, 30 μL of Dye Loading Buffer is added into each well and incubated at 37° C., 5% CO2 for up to one hr.
After 60 min, the cells are washed three times with 100 μL of buffer, leaving 30 μL of buffer in each well. The cell plate, screening plate, and agonist addition plates are placed on the platform in the FLIPR and the door closed. A signal test to check background fluorescence and basal fluorescence signal is performed. Laser intensity is adjusted if necessary.
`N#CC1(c2cccc(Cl)n2)CCN(Cc2cc3c(c4ccccc24)CN([C@H]2CCCC[C@@H]2O)C3=O)CC1` [Example 48]: the EC50 is 53 nM. For the compound `N#CC1(c2ccncc2)CCN(Cc2cc3c(c4ccccc24)CN([C@H]2CCCC[C@@H]2O)C3=O)CC1` [Example 58, 1-({2-[(1S,2S)-2-hydroxycyclohexyl]-3-oxo-2,3-dihydro-1H-benzo[e]isoindol-5-yl}methyl)-4-pyridin-4-ylpiperidine-4-carbonitrile], the EC50 came out at 21 nM. `O=C1c2cc(CN3CCC(c4ccccc4)CC3)c3ccccc3c2CN1C1CCCCC1O` (stereo not drawn) [Example 41, 2-(2-hydroxycyclohexyl)-5-[(4-phenylpiperidin-1-yl)methyl]-1,2-dihydro-3H-benzo[e]isoindol-3-one]: the EC50 stood at 1400 nM.

For the compound `N#CC1(c2ccccn2)CCN(Cc2cc3c(c4ccccc24)CN(C2CCOCC2)C3=O)CC1` [Example 54, 1-{[3-oxo-2-(tetrahydro-2H-pyran-4-yl)-2,3-dihydro-1H-benzo[e]isoindol-5-yl]methyl}-4-pyridin-2-ylpiperidine-4-carbonitrile], the EC50 turned out to be 279 nM. On the same count and under the same terms, as for `CC1(C)CCN(Cc2cc3c(c4ccccc24)CN(C2CCCCC2O)C3=O)CC1` (stereo not drawn) [Example 38, 5-[(4,4-dimethylpiperidin-1-yl)methyl]-2-(2-hydroxycyclohexyl)-1,2-dihydro-3H-benzo[e]isoindol-3-one], the figure is 670 nM.

As for `CC(=O)N1CCN(Cc2cc3c(c4ccccc24)CN(C2CCCCC2O)C3=O)CC1` (stereo not drawn) [Example 14, 5-[(4-acetylpiperazin-1-yl)methyl]-2-(2-hydroxycyclohexyl)-1,2-dihydro-3H-benzo[e]isoindol-3-one], the EC50 was determined as 2600 nM. For `O=C1c2cc(CN3CCC(C(F)(F)F)CC3)c3ccccc3c2CN1C1CCCCC1O` (stereo not drawn) [Example 27, 2-(2-hydroxycyclohexyl)-5-{[4-(trifluoromethyl)piperidin-1-yl]methyl}-1,2-dihydro-3H-benzo[e]isoindol-3-one], the EC50 worked out at 360 nM. On the same count and under the same terms, the value for `N#CC1(c2ccccn2)CCN(Cc2cc3c(c4ccccc24)CN(c2ccccc2F)C3=O)CC1` [Example 62, 1-{[2-(2-fluorophenyl)-3-oxo-2,3-dihydro-1H-benzo[e]isoindol-5-yl]methyl}-4-pyridin-2-ylpiperidine-4-carbonitrile] was 650 nM; that for `O=C1c2cc(CN3CCC4(CC3)COc3ccccc34)c3ccccc3c2CN1C1CCCCC1O` (stereo not drawn) [Example 40, 2-(2-hydroxycyclohexyl)-5-(1′H-spiro[1-benzofuran-3,4′-piperidin]-1′-ylmethyl)-1,2-dihydro-3H-benzo[e]isoindol-3-one] was 720 nM.

For the compound `N#CC1(c2ccncn2)CCN(Cc2cc3c(c4ccccc24)CN([C@H]2CCCC[C@@H]2O)C3=O)CC1` [Example 51, 1-({2-[(1S,2S)-2-hydroxycyclohexyl]-3-oxo-2,3-dihydro-1H-benzo[e]isoindol-5-yl}methyl)-4-(pyrimidin-4-yl)piperidine-4-carbonitrile], the EC50 was determined as 17 nM. The same measure, in the same setting: the value for `O=C1c2cc(CN3CCC(O)(c4ccncc4)CC3)c3ccccc3c2CN1C1CCCCC1O` (stereo not drawn) [Example 43, 2-(2-hydroxycyclohexyl)-5-[(4-hydroxy-4-pyridin-4-ylpiperidin-1-yl)methyl]-1,2-dihydro-3H-benzo[e]isoindol-3-one] was 830 nM; that for `N#CC1(c2cccnc2)CCN(Cc2cc3c(c4ccccc24)CN([C@H]2CCCC[C@@H]2O)C3=O)CC1` [Example 57] was 22 nM.

Staying with this assay, now noted: Table 2; CHOnfat/hM1 cells, FLIPR, EC20 acetylcholine (3 nM final); read-out: M1 Pot.
`CC1(F)CCN(Cc2cc3c(c4ncccc24)CN([C@H]2CCCC[C@@H]2O)C3=O)CC1` [Example 102, 5-[(4-fluoro-4-methylpiperidin-1-yl)methyl]-8-[(1S,2S)-2-hydroxycyclohexyl]-8,9-dihydro-7H-pyrrolo[3,4-h]quinolin-7-one]: the EC50 is 250 nM. As for `COc1ccc(N2CCN(Cc3cc4c(c5ncccc35)C(C)N(C3CCCCC3O)C4=O)CC2)cc1` (stereo not drawn) [Example 170, 8-(2-hydroxycyclohexyl)-5-{[4-(4-methoxyphenyl)piperazin-1-yl]methyl}-9-methyl-8,9-dihydro-7H-pyrrolo[3,4-h]quinolin-7-one], the EC50 turned out to be 100 nM. On the same count and under the same terms, as for `C[C@@H]1c2c(cc(CN3CCC(F)(c4ccccn4)CC3)c3cccnc23)C(=O)N1[C@H]1CCCC[C@@H]1O` [Example 153, (9R)-5-[(4-fluoro-4-pyridin-2-ylpiperidin-1-yl)methyl]-8-[(1S,2S)-2-hydroxycyclohexyl]-9-methyl-8,9-dihydro-7H-pyrrolo[3,4-h]quinolin-7-one], the figure is 8 nM; as for `COc1cccc(C2(C#N)CCN(Cc3cc4c(c5ncccc35)CN([C@H]3CCCC[C@@H]3O)C4=O)CC2)n1` [Example 154, 1-({8-[(1S,2S)-2-hydroxycyclohexyl]-7-oxo-8,9-dihydro-7H-pyrrolo[3,4-h]quinolin-5-yl}methyl)-4-(6-methoxypyridin-2-yl)piperidine-4-carbonitrile], 19 nM. On the same count and under the same terms, as for `O=C1c2cc(CN3CCC(O)(c4ccncc4)CC3)c3cccnc3c2CN1C1CCCCC1O` (stereo not drawn) [Example 144, 8-(2-hydroxycyclohexyl)-5-[(4-hydroxy-4-pyridin-4-ylpiperidin-1-yl)methyl]-8,9-dihydro-7H-pyrrolo[3,4-h]quinolin-7-one], the figure is 510 nM; as for `O=C1c2cc(CN3CCCC(F)(F)C3)c3cccnc3c2CN1C1CCCCC1O` (stereo not drawn) [Example 122, 5-[(3,3-difluoropiperidin-1-yl)methyl]-8-(2-hydroxycyclohexyl)-8,9-dihydro-7H-pyrrolo[3,4-h]quinolin-7-one], 86 nM; as for `O=C1c2cc(CN3CCCCC3)c3cccnc3c2CN1[C@H]1CCCC[C@@H]1O` [Example 86, 8-[(1S,2S)-2-hydroxycyclohexyl]-5-(piperidin-1-ylmethyl)-8,9-dihydro-7H-pyrrolo[3,4-h]quinolin-7-one], 2900 nM. With `CC1c2c(cc(CN3CCN(c4cccnc4)CC3)c3cccnc23)C(=O)N1C1CCCCC1O` (stereo not drawn) [Example 163, 8-(2-hydroxycyclohexyl)-9-methyl-5-[(4-pyridin-3-ylpiperazin-1-yl)methyl]-8,9-dihydro-7H-pyrrolo[3,4-h]quinolin-7-one], the EC50 was 520 nM.

Staying with this assay, now noted: Table 3; inflection point calculated from the FLIPR values; EC20 acetylcholine (3 nM final); read-out: IP Value.
On to `O=C1c2cc(CN3CCC(F)(c4ccccn4)CC3)c3ccccc3c2CN1[C@H]1CCCC[C@@H]1O` [Example 2, 5-{[4-Fluoro-4-(pyridine-2-yl)piperidine-1-yl]methyl}-2-[(1S,2S)-2-hydroxycyclohexyl]-1,2-dihydro-3H-benzo[e]isoindol-3-one], for which the EC50 is 58 nM.
